Measurements reported in DBAASP.
In brackets after ≈: the same amount, converted by molar mass. Several values for one entry are separate records, joined by “and”; a condition that tells them apart may be missing. Equal entries are not always repeated.

Assays:
Assay in all cases: ≥ marks a high value that may be exact or a test limit, other limits are often not marked, values filed in µg/mL are converted to µM
Candida glabrata = system: Candida glabrata
[1] = system: Candida tropicalis ATCC 750
[2] = system: Bacillus subtilis ATCC 23857
Candida krusei ATCC 6258 = system: Candida krusei ATCC 6258
[3] = system: Staphylococcus aureus ATCC 29213
[4] = system: Staphylococcus aureus ATCC 25923
[5] = system: Bacillus subtilis CCT 2576
[6] = system: Cronobacter sakazakii ATCC 29544
[7] = system: Escherichia coli ATCC 25922
[8] = system: Staphylococcus aureus ATCC 6538
[9] = system: Staphylococcus epidermidis ATCC 12228
Candida albicans = system: Candida albicans
[10] = system: Candida albicans ATCC 14053
[11] = system: Candida glabrata ATCC 2001
Escherichia coli ML-35 = system: Escherichia coli ML-35
[12] = system: Escherichia coli ATCC 43827
[13] = system: Klebsiella pneumoniae ATCC 700603
[14] = system: Pseudomonas aeruginosa ATCC 15422
[15] = system: Escherichia coli ATCC 8739
[16] = system: Pseudomonas aeruginosa H1001

Row | MIC (Candida glabrata) | MIC [1] | MIC [2] | MIC (Candida krusei ATCC 6258) | MIC [3] | MIC [4] | MIC [5] | MIC [6] | MIC [7] | MIC [8] | MIC [9] | MIC (Candida albicans) | MIC [10] | MIC [11] | MIC (Escherichia coli ML-35) | MIC [12] | MIC [13] | MIC [14] | MIC [15] | MIC [16] | Compound
1 | 16 µM (≈ 19.8 µg/mL) | 4 µM (≈ 4.96 µg/mL) | 4 µM (≈ 4.96 µg/mL) | ≥ 32 µM | 4 µM (≈ 4.96 µg/mL) | 8 µM (≈ 9.92 µg/mL) | 12.1 µM (≈ 15 µg/mL) | ≥ 64 µM | 32 µM (≈ 39.7 µg/mL) | 12.1 µM (≈ 15 µg/mL) | 8 µM and > 4 µM | 22.6 µM (≈ 28 µg/mL) | 16 µM (≈ 19.8 µg/mL) | 16 µM (≈ 19.8 µg/mL) | ≥ 64 µM | ≥ 32 µM | 128 µM (≈ 159 µg/mL) | ≥ 202 µM | – | – | CC[C@H](C)[C@H](N)C(=O)N[C@@H](CC(C)C)C(=O)NCC(=O)N[C@H](C(=O)N[C@H](C(=O)N[C@@H](CC(C)C)C(=O)NCC(=O)N[C@@H](CC(C)C)C(=O)N[C@@H](CC(C)C)C(=O)N[C@@H](CCCCN)C(=O)N[C@@H](CO)C(=O)N[C@@H](CC(C)C)C(N)=O)[C@@H](C)CC)[C@@H](C)O [ILGTILGLLKSL]
2 | – | – | – | – | – | – | – | – | – | – | – | – | – | – | – | – | – | – | ≥ 60 µM | 5.86 µM (≈ 12.5 µg/mL) | CC[C@H](C)[C@H](NC(=O)[C@H](C)NC(=O)[C@H](CC(N)=O)NC(=O)[C@H](CCSC)NC(=O)[C@@H]1CCCN1)C(=O)N[C@@H](CCCCN)C(=O)N[C@@H](CC(C)C)C(=O)N[C@@H](CC(C)C)C(=O)N[C@@H](CS)C(=O)N[C@@H](CCCN=C(N)N)C(=O)N[C@H](C(=O)N[C@@H](Cc1cnc[nH]1)C(=O)N[C@@H](CCCCN)C(=O)N[C@@H](CCCCN)C(=O)N[C@H](C(=O)N[C@@H](C)C(=O)N[C@H](C(=O)N[C@@H](CO)C(=O)N[C@H](C(=O)O)C(C)C)[C@@H](C)CC)[C@@H](C)CC)C(C)C [PMNAIKLLCRVHKKIAISV]
3 | – | – | – | – | – | – | – | – | – | – | – | – | – | – | – | – | – | – | – | 0.105 µM (≈ 0.26 µg/mL) | CC(C)C[C@H](NC(=O)[C@H](Cc1ccc(O)cc1)NC(=O)[C@@H]1CCCN1C(=O)[C@@H]1CCCN1C(=O)[C@H](CCCCN)NC(=O)[C@H](CC(=O)O)NC(=O)[C@@H](N)C(C)C)C(=O)N1CCC[C@H]1C(=O)N[C@@H](CCCN=C(N)N)C(=O)N1CCC[C@H]1C(=O)N[C@@H](CCCN=C(N)N)C(=O)N1CCC[C@H]1C(=O)N1CCC[C@H]1C(=O)N[C@@H](CCCN=C(N)N)C(=O)N[C@@H](CCCN=C(N)N)C(=O)N[C@@H](Cc1ccccc1)C(=O)N[C@@H](Cc1ccc(O)cc1)C(=O)N[C@@H](CC(N)=O)C(=O)N[C@@H](CCCN=C(N)N)C(=O)NCC(=O)O [VDKPPYLPRPRPPRRFYNRG]
